Data from patent publication US20190045783A1, “SUBSTITUTED IMIDAZOLYLCARBOXAMIDES AS PESTICIDES” (BAYER CROPSCIENCE AKTIENGESELLSCHAFT, priority 2016, published 2019).
Read-outs that look alike come from different tables or passages of the source.

What was measured:
[1] = tested on: larvae of the mustard beetle (Phaedon cochleariae); conditions: application rate 500 g/ha, after 7 days, Chinese cabbage leaf discs; 100% = all beetle larvae killed
Description: Phaedon cochleariae—Spray Test
After 7 days, the efficacy in % is determined. 100% means that all the beetle larvae have been killed; 0% means that no beetle larvae have been killed.

[2] = tested on: caterpillars of the armyworm (Spodoptera frugiperda); conditions: application rate 500 g/ha, after 7 days, maize leaf discs; 100% = all caterpillars killed
Description: Spodoptera Frugiperda—Spray Test
(§1) Emulsifier: alkylaryl polyglycol ether
To produce further test concentrations, the formulation is diluted with emulsifier-containing water.
After 7 days, the efficacy in % is determined. 100% means that all the caterpillars have been killed; 0% means that no caterpillar has been killed.

[3] = log P by HPLC on reversed-phase column (C18), EEC directive 79/831 Annex V.A8; format: physicochemical; conditions: for logP [n]: pH 7.8; for chromatographic logP: reversed-phase HPLC column (C18), neutral range, pH 7.8, HPLC C18, 43° C.
[4] = tested on: green peach aphids (Myzus persicae); test: Myzus persicae oral test; format: in vivo; conditions: application rate 20 ppm, after 5 days, oral, 100% = all aphids killed; for pest or weed control at 20 ppm: Myzus persicae, 120 h, read-out: efficacy in %
Description: (§2) Solvent: 100 parts by weight of acetone
Subsequently, the plates are sealed with parafilm, which a mixed population of green peach aphids (Myzus persicae) within a second microtitre plate is able to puncture and imbibe the solution through it.
After 5 days, the efficacy in % is determined. 100% means that all the aphids have been killed; 0% means that no aphids have been killed.

[5] = tested on: green peach aphid (Myzus persicae); test: Myzus persicae spray test (Chinese cabbage leaf discs); format: in vivo; conditions: application rate 500 g/ha, after 5-6 days, Chinese cabbage leaf discs, 100% = all aphids killed; for pest or weed control at 500 g/ha: Myzus persicae, foliar, read-out: efficacy in %
Description: (§3) Myzus persicae—Spray Test
To produce a suitable active ingredient formulation, 1 part by weight of active ingredient is dissolved with the stated parts by weight of solvent and made up with water containing an emulsifier concentration of 1000 ppm until the desired concentration is attained. To produce further test concentrations, the formulation is diluted with emulsifier-containing water.
After 5-6 days, the efficacy in % is determined. 100% means that all the aphids have been killed; 0% means that no aphids have been killed.

[6] = tested on: greenhouse red spider mite (Tetranychus urticae); test: Tetranychus urticae spray test, OP-resistant; format: in vivo; conditions: application rate 500 g/ha, after 6 days, bean leaf discs; 100% = all spider mites killed
Description: Tetranychus urticae—Spray Test, OP-Resistant
After 6 days, the efficacy in % is determined. 100% means that all the spider mites have been killed; 0% means that no spider mites have been killed.

[7] = tested on: green peach aphid (Myzus persicae); test: Myzus persicae spray test (MYZUPE), comparison with prior art; format: in vivo; conditions: Myzus persicae, 120 h; MYZUPE, 100 g of ai/ha, 5 dat; read-out: % efficacy
Description: Myzus persicae—Spray Test (MYZUPE)
as §1
(§4) After the desired period of time (dat), the efficacy in % is determined. 100% means that all the aphids have been killed; 0% means that no aphids have been killed.

[8] = tested on: green peach aphids (Myzus persicae); test: Myzus persicae oral test (MYZUPE O), comparison with prior art; format: in vivo; conditions: Myzus persicae, po, 120 h, MYZUPE O, 5 dat, read-out: % efficacy
Description: Myzus persicae—Oral Test (MYZUPE O)
as §2
50 μl of the active compound preparation are transferred into microtitre plates and made up to a final volume of 200 μl with 150 μl of IPL41 insect medium (33%+15% sugar). Subsequently, the plates are sealed with parafilm, which a mixed population of green peach aphids (Myzus persicae) within a second microtitre plate is able to puncture and imbibe the solution through it.
as §4

[9] = tested on: engorged adult female cattle ticks (Boophilus microplus); test: Boophilus microplus injection test; format: in vivo; conditions: 20 μg/animal, assessed after 7 days, 100% = no tick laid fertile eggs
Description: Boophilus microplus—Injection Test
Solvent: dimethyl sulphoxide
To produce a suitable preparation of active compound, 10 mg of active compound are mixed with 0.5 ml of solvent and the concentrate is diluted with solvent to the desired concentration.
1 μl of the active compound solution is injected into the abdomen of 5 engorged adult female cattle ticks (Boophilus microplus). The animals are transferred into dishes and kept in a climate-controlled room.
Efficacy is assessed after 7 days by laying of fertile eggs. Eggs which are not visibly fertile are stored in a climate-controlled cabinet until the larvae hatch after about 42 days. An efficacy of 100% means that none of the ticks has laid any fertile eggs; 0% means that all the eggs are fertile.

[10] = tested on: green peach aphid (Myzus persicae); test: Myzus persicae spray test (bell pepper plants); format: in vivo; conditions: application rate 20 ppm, after 6 days, 100% = all aphids killed
Description: as §3
Solvent: 14 parts by weight of dimethylformamide
as §1
If the addition of ammonium salts or/and penetrants is required, these are each added in a concentration of 1000 ppm to the formulation solution.
Bell pepper plants (Capsicum annuum) severely infested with the green peach aphid (Myzus persicae) are treated by spraying with the active compound formulation in the desired concentration.
After 6 days, the kill in % is determined. 100% means that all of the aphids have been killed; 0% means that none of the aphids have been killed.

Row | Compound | logP [n] [3] | efficacy in % [4] [%] | pest or weed control at 20 ppm [4] [%] | efficacy in % [6] [%] | efficacy in % [5] [%] | also measured
1 | CCN(C(=O)c1cnc(C=O)n1C)c1cccnc1 [I-1-039] | 0.97 | 100 | – | – | – | efficacy in % [1]: 100%; efficacy in % [2]: 83%
2 | CN(C(=O)c1cnc(/C=N/OCC2CC2)n1C)c1cccnc1 [I-1-008, 2-[(E)-(Cyclopropylmethoxyimino)methyl]-N,1-dimethyl-N-(pyridin-3-yl)-1H-imidazole-5-carboxamide] | – | – | 100 | 90 | – | pest or weed control at 500 g/ha [5]: 100%; chromatographic logP ([3]; preparation examples, read-out: log P[n]): 1.78
3 | CN(C(=O)c1cnc(C(=O)NCC#N)n1C)c1cccnc1 [I-1-076] | – | – | 100 | 90 | – | pest or weed control at 500 g/ha [5]: 100%; Emax at 100 g/ha [7]: 90%; chromatographic logP ([3]; Table 1, read-out: logP [n]): 0.78; Emax at 0.8 ppm [8]: 90%; Emax at 4 ppm [8]: 90%
4 | CN(C(=O)c1cnc(/C=N/OC(C)(C)C)n1C)c1cccnc1 [I-1-037] | 1.99 | 100 | – | – | 100 | efficacy (laying of fertile eggs) [9]: 90%
5 | CN(C(=O)c1cnc(C2OCCCO2)n1C)c1cccnc1 [I-1-006] | – | – | 100 | – | – | chromatographic logP ([3]; Table 1, read-out: logP [n]): 0.92; kill in % (efficacy) [10]: 98%; Emax at 0.8 ppm [8]: 100%; Emax at 4 ppm [8]: 100%
6 | CN(C(=O)c1cnc(/C=N/OCC(F)(F)F)n1C)c1cccnc1 [I-1-031] | 1.68 | 100 | – | – | 90 | efficacy (laying of fertile eggs) [9]: 80%
7 | CN(C(=O)c1cnc(/C=N/OCc2ccc(Cl)cc2)n1C)c1cccnc1 [I-1-010] | 2.43 | 90 | – | 90 | 90 | –
